1 compound from US12391643B2, “Substituted amino-thiol and amino-disulfide compounds, and uses thereof” (The Regents of the University of California, priority 2019, dated 2025) can be followed below.

Series [1] relates to C57BL/6 male mice on CDAHFD diet. In words: In vivo NASH model, prevention phase (drug in drinking water, 8 weeks). Conditions: about 200 mg/kg/day in drinking water, n=8 per group. The method, then:
In vivo NASH Models. NASH models from normal C57BL/6 male mice on CDAHFD diet (choline deficient, L-amino acid defined, high fat diet with restricted amount of methionine) were used. Two deuterated cystamine molecules were tested:
Two phase study was performed: (1) A prevention and (2) a treatment phase. 48 Mice were separated into nine groups of mice as described below. Histology at end of each study was performed looking for specific features of NASH (steatohepatitis, ballooning, fibrosis). The primary endpoint was plasma ALT measurement. Gene expression studies for fibrosis, inflammation were also performed.
Drug (D2 or D4) was administered in drinking water at a concentration to deliver animals about 200 mg/kg/day of drug. Daily weight. Volume of fluid drunk/day was also measured.
Prevention Phase. Group 1: Control mice on CDAHFD for 8 weeks. Blood drawn at 0, 4, and 8 weeks. Group 2: Mice on CDAHFD plus D2 at 200 mg/kg/day for 8 weeks. Blood drawn at 0, 4, and 8 weeks. Group 3: Mice on CDAHFD plus D4 at 200 mg/kg/day for 8 weeks. Blood drawn at 0, 4, and 8 weeks. Group 4: Control mice (n=4) continue on CDAHFD for 2 weeks. Blood at baseline and at 2 weeks. Liver histology at 2 weeks. Group 5: Mice (n=4) on CDAHFD for 2 weeks plus D2 at 200 mg/kg/day administered via daily gavage. Blood at 0 and 2 weeks and histology at 2 weeks. […]

For series [2], the system named is Pooled human hepatocytes. In words: Hepatocyte elimination (in vitro metabolic stability, percent parent remaining by LC/MS/MS). The class given is in vitro ADME. The following applies: compared with other forms. An excerpt:
In vitro experiments with isotopically enriched cystamine and cysteamine in hepatocytes.
The assessment of in vitro metabolic stability provides a means to measure the susceptibility of a test compound to biotransformation by the liver. While liver microsomes primarily assess cytochrome P450 system-mediated metabolism (phase I metabolism), hepatocytes represent a complete, undisrupted metabolic system, including cofactors, and thus assess both phase I and phase II metabolism. In all cases, the metabolic stability of test compounds was determined by monitoring, via LC/MS/MS, the percent parent compound remaining versus time of incubation in human hepatocytes.
Pooled human hepatocytes (catalog number HMCS10, ThermoFischer Scientific) were thawed according to the manufacturers instructions. Thawed hepatocytes were washed by centrifugation and replated in Williams' Medium E supplemented with Heptocyte Plating Supplement Pack, Serum-containing.
Cells were diluted to 1,000,000 per ml in maintenance media (Williams' E Media supplemented with Hepatocyte Maintenance Supplement Pack, Serum-free). 500 μl of cell suspension was added to each well of a microtiter plate containing 500 μl of the deuterated test agent and placed on an orbital shaker at 120 rpm at 37 C. At the appropriate time point 50 μl aliquots were removed from the well and added to 50 μl of ice cold ethyl acetate and vortexed for 5 min and froze until chromatography analysis.

The subject of series [3] is cystinotic fibroblasts. Briefly: Intracellular NEM-cysteamine, NEM-cysteine, cystamine and mixed disulfide levels in cystinotic fibroblasts. The following applies: washout period. It is filed as cell-based, human. The procedure: In vitro experiments with isotopically enriched cystamine in cystinotic fibroblasts. Fibroblasts from a de-identified cystinotic patient were split 3× from 2 plates into 36 plates. Three different drugs were used for the experiments: cystamine (non-labeled), d2-cystamine, and d4-cystamine. There were two time series for each drug. The first was with constant drug incubation and included: 0, 10 min, 30 min, 1 h, 3 h, and 5 h. The other series included a washout after 3 h drug incubation, using fresh media following a PBS wash, and included the timepoints: 0, 30 min, 1 h, 3 h, 5 h, and 17 h. A direct quench and extraction technique were used for harvesting all cells to minimize further oxidation and metabolism. This included 2× washes with PBS that included 5 mM N-ethylmaleimide for trapping free thiol groups, and then scraping the plates with an acidified organic solvent extraction solution containing both d4-cystine and d4-cysteamine (plus d-8 cystamine) as internal standards. All samples were run on an API 4500 triple quadrupole LC-MS/MS, with selective reaction monitoring (SRM/MRM) for the following compounds of interest: cystine, NEM-cysteamine, NEM-cysteine, cystamine, and 2-(methylthio)ethylamine. All data fit well to single exponential curves (either decay or association), except where mentioned.
NEM-cysteamine and NEM-cysteine during constant incubation. Fibroblast cultures were exposed to drug (either cystamine, d2-cystamine, or d4-cystamine) and harvested as described on page 2 for the cystine depletion curve. NEM-cysteamine (or NEM-d1-cysteamine or NEM-d2-cysteamine) was measured for each respective plate and normalized against the signal for d4-cystine.
NEM-cysteamine during washout. Fibroblast cultures were exposed to drug (either cystamine, d2-cystamine, or d4-cystamine) for 3 h were then exposed to media for various timepoints and harvested as previously described.
NEM-cysteine during washout. Fibroblast cultures were exposed to drug (either cystamine, d2-cystamine, or d4-cystamine) for 3 h were then exposed to media for various timepoints and harvested as previously described.
Cystamine during constant drug incubation. Fibroblast cultures were exposed to drug (either cystamine, d2-cystamine, or d4-cystamine) for various timepoints following harvesting as described earlier. Cystamine could be measured in the non-labeled cystamine incubation as well as the d4-cystamine incubation. d2-cystamine could not be accurately measured due to a strong background interference signal corresponding to that mass. No cystamine could be measured in the washout experiments.

For `[2H]C([2H])(CN)SSC([2H])([2H])CN` [D4-Cystamine, 2,2′-disulfanediylbis(ethan-2,2-d2-1-aminium) chloride], in series [1], the “ALT levels at 8 weeks versus control group” value was “not between the control group and D4”. Besides, the “Rate of hepatocyte elimination / stability, comparison in words” value is listed as “most stable of the dimeric compounds” in series [2] and “slower rate than D2 or non-deuterated cystamine” in series [2] (listed as D4 cystamine). Further, the “NEM-cysteine level after 3 h incubation and washout” value in series [3] is “rise and increase”.
